Results as given in US20130209578A1, “Combinatory Cancer Treatment” (UNIVERSITE DE MONTREAL, priority 2010, published 2013).
Entries after “also recorded” stand apart in the source; their conditions may differ.

Experiments:
[1] = test system: primary AML specimens; assay: colony forming assay in methyl cellulose, primary AML specimens; type: cell-based, human; conditions: Flt3 mutant versus Flt3 wildtype specimens, drug alone
Excerpt: (§1) FIG. 1 is a table summarizing the results of colony forming assays in methyl cellulose for primary AML specimens (purchased from the BLCQ) or specimens isolated from healthy volunteers (purchased from Stem Cell Technologies). A colony experiment typically runs for 14 days. A special media which supports hematopoietic cell growth was used (Methocult purchased from Stem Cell Technologies). Mutant refers to the presence of a mutation in the Flt3 gene (a common leukemia marker) and wildtype refers to Flt3 not being mutated in this specimen. Each experiment is carried out in quintuplicate with colony number plus/minus standard deviations given. […] Untreated controls were carried out in parallel for every single experiment. Experiments were done on specimens as described.

[2] = test system: acute myeloid leukemia (AML); assay: phase II clinical trial of ribavirin monotherapy in leukemia (AML) patients, NCT00559091; type: in vivo, human
Excerpt: Thus, because of its properties, the eukaryotic translation initiation factor, eIF4E, has become an appealing clinical target to treat patients diagnosed with cancer, in particular AML. […] 114, no. 2 (Jul. 9, 2009, Epub 2009 May 11).
In conducting clinical trial no. […] In some patients, monotherapy had no impact. […] In fact, leukemic cells become resistant to nearly all monotherapies within two (2) to four (4) months; such being due to naturally occurring phenomena such as selective evolution (Abboud et al., “Induction therapy for elderly patients with acute myeloid leukemia”, Blood Reviews (2008) 22: 311-320, and Melnick et al., “MDS and secondary AML display unique patterns and abundance of aberrant DNA methylation”, Blood. 2009 Oct. 15; 114(16):3448-58. Epub 2009 Aug. 3). To overcome this issue of resistance, it is not uncommon in the clinical field, and as for most treatments involving a monotherapy, to follow-up this treatment with chemotherapy, as it taught in Abboud et al. (supra) and Melnick et al. (supra). As it is well known, the use of chemotherapeutic agents has many secondary effects on patients, including and not limited to damage of normal cells, anemia, bleeding, constipation, fatigue, hair loss, infections, memory changes, swelling, and even death amongst many others. Conventional chemotherapy also requires a stay at the hospital so as to administer the chemotherapeutic agent(s) as well as supportive care for the side effects. In this connection, Abboud et al., in Blood Reviews (2008, supra), review treatment strategies of patients over 60 (which are the majority of AML patients), diagnosed with AML, and the morbidities and mortalities associated with chemotherapy.
Ribavirin was used extensively as a broad-spectrum anti-viral therapy.

[3] = test system: THP-1 cells; assay: western blot of eIF4E targets, apoptosis and autophagy markers in THP-1 cells; type: cell-based, human; conditions: for HoxA9 protein levels: FIG. 7
[4] = molecular target: T1, eIF4E (Homo sapiens, UniProt P06730); assay: 3H ribavirin immunoprecipitation with eIF4E antibodies in FaDu cells; type: binding; conditions: 24 h, 0.66 micromolar 3H ribavirin, formaldehyde cross-linked
T1 construct: endogenous in cells; host or cells: FaDu cells
Excerpt: Equal amounts of lysate were used for immunoprecipitation with antibodies to eIF4E or IgG controls. After 6 washes (W), beads were eluted in SDS Buffer. ⅕ of volume was used for western blot analysis and the rest for ^3H measurement. […] Input is a positive control showing that eIF4E is present in the cell lysate.
FIG. 3 is a western blot control for FIG. 2. This western blot confirms that antibodies to eIF4E immunoprecipitated eIF4E and that eIF4E was not found in the IgG control immunoprecipitation.

[5] = test system: KG-1a cells; assay: western blot of eIF4E targets, apoptosis and autophagy markers in KG-1a cells; type: cell-based, human; conditions: for Akt activation / LC3B level and cleavage (autophagy marker) / levels of eIF4E downstream targets XIAP, Mdm2, Mcl-1: KG1 cells; for levels of eIF4E downstream targets XIAP, Mdm2, Mcl-1: ribavirin 10 μM, azacytidine 3 μM
[6] = Assouline et al, Blood 2009; cited from earlier work
[7] = test system: M1 and M2 AML specimens (with normal eIF4E levels); assay: methyl-cellulose colony assay, M1 and M2 AML specimens with normal eIF4E; type: cell-based, human; conditions: ribavirin 1 micromolar
Excerpt: as §1

[8] = molecular target: purified eIF4E; conditions: cited from earlier work
[9] = test system: M1 AML specimen with elevated eIF4E (M1-high4E); assay: methyl-cellulose colony assay, M1 AML specimen with elevated eIF4E; type: cell-based, human; conditions: ribavirin 1 micromolar, azacytidine 3 micromolar
Excerpt: as §1

T1 sequence (P06730 whole entry): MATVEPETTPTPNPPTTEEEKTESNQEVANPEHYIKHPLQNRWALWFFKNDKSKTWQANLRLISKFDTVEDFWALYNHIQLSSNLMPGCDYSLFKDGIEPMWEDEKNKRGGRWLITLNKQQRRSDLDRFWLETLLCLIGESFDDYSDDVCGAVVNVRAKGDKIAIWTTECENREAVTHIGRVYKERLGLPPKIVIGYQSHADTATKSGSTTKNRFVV

Row | Structure (SMILES) | dependence of the effect on colony growth on Flt3 status [1] | clinical response of patients ([2]; Canada-wide clinical trial) | resistance to monotherapy in patients ([2]; clinical trial no. NCT00559091) | eIF4E protein (and RNA) levels in patients ([2]; phase II clinical trial, ribavirin monotherapy) | HoxA9 protein levels [3] | mdm2 protein level (eIF4E mRNA export target) ([3]; THP-1 cells, 48 hours) | binding of 3H ribavirin to eIF4E in living cells [4] | Akt activation [5] | LC3B level and cleavage (autophagy marker) [5] | levels of eIF4E downstream targets XIAP, Mdm2, Mcl-1 [5] | eIF4E protein levels ([5]; KG-1a and THP-1 cells, ribavirin 48 hours) | mdm2 protein level (eIF4E mRNA export target) ([5]; KG-1a cells, 48 hours) | concentration in plasma from patients [6] [µM] | colonies versus untreated cells [7] | drop in colonies versus untreated cells [7] [%] | Kd ([8]; Kentsis 2004, read-out: affinity constant for eIF4E) [nM] | Kd for purified eIF4E in vitro ([8]; Kentsis et al. 2004) | levels of eIF4E downstream targets XIAP, mdm2, Mcl-1 ([3]; THP-1 cells) | levels of NFkappaB subunit p65 ([5]; FIG. 6) | colonies versus untreated controls [9]
1 | NC(=O)c1ncn([C@@H]2O[C@H](CO)[C@@H](O)[C@H]2O)n1 [ribavirin, 1-[(2R,3R,4S,5R)-3,4-dihydroxy-5-(hydroxymethyl)oxolan-2-yl]-1H-1,2,4-triazole-3-carboxamide] | independent of Flt3 status | striking improvement | most if not all patients became resistant; also recorded: all eventually developed resistance | downregulation | does not reverse this | downregulated | binds directly to eIF4E in living cells; also recorded: eIF4E binds ^3H ribavirin | reduces Akt activation | elevated LC3B levels | reduced the expression | do not change | downregulated | 10 to 20 | 70-80% | ~25 | ~1000 | low micromolar range |  |  | 
2 | Nc1ncn([C@@H]2O[C@H](CO)[C@@H](O)[C@H]2O)c(=O)n1 [azacytidine, 4-amino-1-β-D-ribofuranosyl-1,3,5-triazin-2(1H)-one] | independent of Flt3 status |  |  |  | elevates |  |  | leads to Akt activation | increases the total amount of LC3B protein | gross increase; also recorded: upregulated |  |  |  |  |  |  |  | upregulated; also recorded: elevated | elevated | about 80%
